Assay results as given in ChEMBL document CHEMBL4673253, “Discovery of EST73502, a Dual μ-Opioid Receptor Agonist and σ Receptor Antagonist Clinical Candidate for the Treatment of Pain” (J Med Chem, 2020).

Legend:
hERG (KCNH2) = hERG (KCNH2) (Homo sapiens, UniProt Q12809); experiment: Inhibition of human ERG expressed in CHO cells at 10 uM at -80 mV holding potential by whole cell patch clamp assay; assay type: cell-based; settings: CHO cells expressing human ERG
[1] = molecular target: Voltage-gated inwardly rectifying potassium channel KCNH2 (Homo sapiens, UniProt Q12809)
Description: Inhibition of human ERG expressed in CHO cells at -80 mV holding potential by whole cell patch clamp assay

[2] = molecular target: T1, Alpha-1A adrenergic receptor (Homo sapiens) (UniProt P35348); experiment: Binding affinity to human alpha1A adrenoreceptor expressed in membranes assessed as inhibition of [3H]-prazosin binding incubated for 90 mins by scintillation counting method; parameters: concentration or dose not given beside the values; settings: Cell membrane
T1 sequence (whole entry): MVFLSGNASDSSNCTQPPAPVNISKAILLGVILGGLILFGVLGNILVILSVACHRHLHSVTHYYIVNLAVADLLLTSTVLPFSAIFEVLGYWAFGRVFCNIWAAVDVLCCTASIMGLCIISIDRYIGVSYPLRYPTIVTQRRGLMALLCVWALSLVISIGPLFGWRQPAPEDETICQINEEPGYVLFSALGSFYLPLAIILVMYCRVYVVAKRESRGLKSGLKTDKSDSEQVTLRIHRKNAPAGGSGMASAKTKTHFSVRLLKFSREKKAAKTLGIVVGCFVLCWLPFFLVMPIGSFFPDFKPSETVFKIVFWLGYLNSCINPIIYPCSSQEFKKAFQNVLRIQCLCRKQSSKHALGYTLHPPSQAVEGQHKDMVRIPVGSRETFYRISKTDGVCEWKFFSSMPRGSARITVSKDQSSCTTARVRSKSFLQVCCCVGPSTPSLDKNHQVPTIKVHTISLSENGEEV

Mu-type opioid receptor [3] = molecular target: T2, Mu-type opioid receptor (Homo sapiens, UniProt P35372); experiment: Displacement of [3H]-DAMGO from human MOR expressed in CHOK1 cell membranes incubated for 60 mins by liquid scintillation counting method; parameters: species or system CHO-K1, Cell membrane
Mu-type opioid receptor [4] = molecular target: T2, Mu-type opioid receptor; experiment: Agonist activity at human MOR expressed in CHOK1 cells assessed as […] of cAMP accumulation incubated for 45 mins by HTRF assay relative to DAMGO; assay type: functional, cell-based; settings: CHO-K1, filed as agonist
Mu-type opioid receptor [5] = molecular target: T2, Mu-type opioid receptor; experiment: Agonist activity at human MOR expressed in CHOK1 cells assessed as […] of cAMP accumulation incubated for 45 mins by HTRF assay; assay type: functional, cell-based, CHO-K1
[6] = molecular target: T3, Sigma non-opioid intracellular receptor 1 (Homo sapiens, UniProt Q99720); experiment: Displacement of 3H](+)-pentazocine from human sigma1 receptor expressed in HEK293 cell membranes incubated for 120 mins by liquid scintillation counting method; parameters: species or system Cell membrane
Mus musculus = experiment: Antinociceptive activity in CD1 mouse PSNL model assessed as reduction in mechanical allodynia by measuring decrease in the pressure required to elicit withdrawal of the ipsilateral paw after von Frey filament stimulation at 1.25 mg/kg, ip BID for 11 days from day 13 to day 22; assay type: functional; settings: 264 h, time 11 day
[7] = Toxicity in CD1 mouse assessed as inhibition of intestinal transit by measuring percentage of distance traveled by charcoal meal at 20 mg/kg, po; assay type: organism-based; settings: in vivo
[8] = molecular target: T3, Sigma non-opioid intracellular receptor 1; experiment: Displacement of 3H](+)-pentazocine from human sigma1 receptor expressed in HEK293 cell membranes at 10 uM incubated for 120 mins by liquid scintillation counting method; settings: Cell membrane
Mu-type opioid receptor [9] = molecular target: T2, Mu-type opioid receptor; experiment: Agonist activity at human MOR expressed in CHOK1 cells assessed as […] of cAMP accumulation at 1 uM incubated for 45 mins by HTRF assay; assay type: functional, cell-based; settings: CHO-K1
Mu-type opioid receptor [10] = molecular target: T2, Mu-type opioid receptor; experiment: Displacement of [3H]-DAMGO from human MOR expressed in CHOK1 cell membranes at 1 uM incubated for 60 mins by liquid scintillation counting method; settings: CHO-K1, Cell membrane
Mu-type opioid receptor [11] = molecular target: T2, Mu-type opioid receptor; experiment: Displacement of [3H]-DAMGO from human MOR expressed in CHOK1 cell membranes at 10 uM incubated for 60 mins by liquid scintillation counting method; settings: CHO-K1, Cell membrane
Mu-type opioid receptor [12] = molecular target: T2, Mu-type opioid receptor; experiment: Agonist activity at human MOR expressed in CHOK1 cells assessed as […] of cAMP accumulation at 10 uM incubated for 45 mins by HTRF assay; assay type: functional, cell-based; settings: CHO-K1

Sequence of hERG (KCNH2) (Q12809 whole entry): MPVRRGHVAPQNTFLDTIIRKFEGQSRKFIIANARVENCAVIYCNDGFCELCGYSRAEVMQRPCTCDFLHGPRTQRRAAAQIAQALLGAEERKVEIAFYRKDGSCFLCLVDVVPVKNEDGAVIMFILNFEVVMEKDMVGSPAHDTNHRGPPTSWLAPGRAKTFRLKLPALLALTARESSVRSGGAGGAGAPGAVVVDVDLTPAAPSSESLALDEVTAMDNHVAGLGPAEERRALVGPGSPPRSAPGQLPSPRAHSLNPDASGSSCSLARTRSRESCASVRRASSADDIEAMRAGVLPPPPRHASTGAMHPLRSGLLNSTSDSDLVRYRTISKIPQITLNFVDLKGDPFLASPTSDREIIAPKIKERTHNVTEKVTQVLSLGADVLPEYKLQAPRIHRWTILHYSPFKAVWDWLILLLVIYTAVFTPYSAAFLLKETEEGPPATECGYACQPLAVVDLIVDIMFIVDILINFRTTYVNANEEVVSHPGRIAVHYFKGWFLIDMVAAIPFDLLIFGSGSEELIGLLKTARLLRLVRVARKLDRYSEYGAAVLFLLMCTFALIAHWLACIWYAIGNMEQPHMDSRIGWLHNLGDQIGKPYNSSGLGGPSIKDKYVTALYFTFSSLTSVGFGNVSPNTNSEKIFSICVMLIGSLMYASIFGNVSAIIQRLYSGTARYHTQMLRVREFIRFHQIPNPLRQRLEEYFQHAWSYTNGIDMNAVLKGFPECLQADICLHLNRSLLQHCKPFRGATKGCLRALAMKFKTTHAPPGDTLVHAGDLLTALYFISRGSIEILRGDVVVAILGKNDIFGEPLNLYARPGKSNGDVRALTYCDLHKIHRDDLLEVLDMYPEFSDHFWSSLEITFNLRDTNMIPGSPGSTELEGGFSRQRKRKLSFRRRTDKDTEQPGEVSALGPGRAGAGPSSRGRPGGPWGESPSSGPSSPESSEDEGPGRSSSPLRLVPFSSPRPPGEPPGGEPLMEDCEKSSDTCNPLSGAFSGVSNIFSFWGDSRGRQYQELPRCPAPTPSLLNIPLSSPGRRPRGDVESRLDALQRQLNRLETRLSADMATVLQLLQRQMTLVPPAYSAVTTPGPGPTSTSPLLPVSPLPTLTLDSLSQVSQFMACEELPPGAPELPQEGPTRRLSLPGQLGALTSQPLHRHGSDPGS
Sequence of Voltage-gated inwardly rectifying potassium channel KCNH2 (Q12809 whole entry): as above
T3 sequence (Q99720 whole entry): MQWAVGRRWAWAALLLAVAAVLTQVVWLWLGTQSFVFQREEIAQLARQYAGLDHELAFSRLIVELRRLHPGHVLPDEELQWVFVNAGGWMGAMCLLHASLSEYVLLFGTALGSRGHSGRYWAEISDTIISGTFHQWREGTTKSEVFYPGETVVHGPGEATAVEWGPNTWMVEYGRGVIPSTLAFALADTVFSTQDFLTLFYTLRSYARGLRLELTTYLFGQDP
T2 sequence (P35372 whole entry): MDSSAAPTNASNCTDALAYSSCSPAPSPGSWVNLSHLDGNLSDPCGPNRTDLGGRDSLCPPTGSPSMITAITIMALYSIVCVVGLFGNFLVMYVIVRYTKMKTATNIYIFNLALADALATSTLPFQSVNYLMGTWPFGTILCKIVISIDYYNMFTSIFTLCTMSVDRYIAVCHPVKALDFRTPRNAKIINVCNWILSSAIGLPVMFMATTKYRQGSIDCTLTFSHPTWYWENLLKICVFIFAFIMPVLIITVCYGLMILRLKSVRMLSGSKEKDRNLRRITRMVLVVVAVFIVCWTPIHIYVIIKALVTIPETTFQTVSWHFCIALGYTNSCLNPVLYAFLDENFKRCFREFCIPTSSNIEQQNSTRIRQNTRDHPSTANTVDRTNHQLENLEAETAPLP

SMILES	inhibition at 10 µM (hERG (KCNH2))	IC50 [1]	inhibition [2]	Ki (Mu-type opioid receptor [3])	Emax (Mu-type opioid receptor [4])	EC50 (Mu-type opioid receptor [5])	Ki [6]	inhibition in vivo at 1.25 mg/kg (Mus musculus)	Activity [7]	inhibition [8]	inhibition (Mu-type opioid receptor [9])	inhibition (Mu-type opioid receptor [10])	inhibition (Mu-type opioid receptor [11])	inhibition (Mu-type opioid receptor [12])
CCN1CC2(CCN(CCc3cc(F)ccc3F)CC2)O[C@@H](C)C1=O	< 50%	> 10000 nM	9%	–	–	–	–	–	–	–	–	–	–	–
CN1CC2(CCN(CCc3ccccc3)CC2)OC2(CC2)C1=O	–	3600 nM	41%	221 nM	85%	442 nM	161 nM	–	–	–	–	–	–	–
CC1OC2(CCN(CCc3ccccc3)CC2)CN(Cc2ccccc2)C1=O (stereo unspecified)	–	100 nM	67%	2 nM	97%	2 nM	10 nM	–	–	–	–	–	–	–
CCN1CC2(CCN(CCc3ccc(F)cc3)CC2)O[C@H](C)C1=O	–	1500 nM	21%	164 nM	81%	108 nM	76 nM	–	–	–	–	–	–	–
COc1ccc2c3c1O[C@H]1C(=O)CC[C@@]4(O)[C@@H](C2)N(C)CC[C@]314 [OXYCODONE]	< 50%	> 10000 nM	–	–	–	–	–	51%	Toxic	< 50%	–	–	–	–
CCN1CC2(CCN(CCc3ccccc3)CC2)O[C@H](C)C1=O	–	4700 nM	14%	26 nM	83%	49 nM	66 nM	–	–	–	–	–	–	–
CN1CC2(CCN(CCc3ccccc3)CC2)OCC1=O	–	–	36%	> 1000 nM	–	> 1000 nM	282 nM	–	–	–	< 50%	< 50%	–	–
CCN1CC2(CCN(CCc3ccccc3F)CC2)O[C@H](C)C1=O	–	4000 nM	15%	18 nM	84%	24 nM	68 nM	–	–	–	–	–	–	–
CCN1CC2(CCN(CCc3cccc(F)c3)CC2)O[C@H](C)C1=O	–	–	42%	56 nM	83%	56 nM	64 nM	–	–	–	–	–	–	–
CC1OC2(CCN(CCc3ccccc3)CC2)CN(CCc2ccccc2F)C1=O (stereo unspecified)	< 50%	> 10000 nM	7%	> 1000 nM	–	> 1000 nM	892 nM	–	–	–	< 50%	< 50%	–	–
CC[C@H]1OC2(CCN(CCc3ccccc3)CC2)CN(C)C1=O	–	6600 nM	13%	192 nM	90%	505 nM	139 nM	–	–	–	–	–	–	–
CC1OC2(CCN(CCc3ccccc3)CC2)CN(CCc2ccccc2)C1=O (stereo unspecified)	–	200 nM	58%	20 nM	94%	22 nM	–	–	–	–	–	–	–	–
CCN1CC2(CCN(CCc3ccccn3)CC2)OC2(CC2)C1=O	–	–	0%	> 1000 nM	–	1500 nM	783 nM	–	–	–	–	–	< 50%	–
CN1CC2(CCN(CCc3ccccc3)CC2)OC(c2ccccc2)C1=O (stereo unspecified)	–	–	26%	> 1000 nM	–	> 1000 nM	242 nM	–	–	–	< 50%	< 50%	–	–
CCN1CC2(CCN(CCc3ccc(F)cc3F)CC2)O[C@H](C)C1=O	–	2500 nM	11%	62 nM	92%	53 nM	94 nM	–	–	–	–	–	–	–
CCN1CC2(CCN(CCc3ccccc3)CC2)OC(C)C1=O (stereo unspecified)	–	3100 nM	27%	41 nM	84%	65 nM	43 nM	–	–	–	–	–	–	–
CC1OC2(CCN(CCc3ccccc3)CC2)CN(C(C)C)C1=O (stereo unspecified)	–	3900 nM	35%	33 nM	100%	21 nM	30 nM	–	–	–	–	–	–	–
C[C@@H]1OC2(CCN(CCc3ccccc3)CC2)CN(C)C1=O	–	–	6%	> 1000 nM	–	1780 nM	165 nM	–	–	–	–	< 50%	–	–
CN1CC2(CCN(CCc3ccccc3)CC2)OC(C)(C)C1=O	–	–	37%	> 1000 nM	–	624 nM	50 nM	–	–	–	–	< 50%	–	–
CC1OC2(CCN(CCc3ccccc3)CC2)CN(c2ccccc2)C1=O (stereo unspecified)	–	–	72%	–	85%	–	–	–	–	–	–	–	–	–
C[C@H]1OC2(CCN(CCc3ccccc3)CC2)CN(C)C1=O	< 50%	> 10000 nM	19%	91 nM	83%	319 nM	277 nM	–	–	–	–	–	–	–
O=C1N(c2cccnc2C(F)(F)F)CC2(CCN(CCc3ccccc3F)CC2)OC12CC2	< 50%	–	57%	–	–	–	–	–	–	–	–	–	–	–
CC(C)C1OC2(CCN(CCc3ccccc3)CC2)CN(C)C1=O (stereo unspecified)	–	6200 nM	29%	115 nM	85%	174 nM	122 nM	–	–	–	–	–	–	–
CCN1CC2(CCN(CCc3c(F)cccc3F)CC2)O[C@H](C)C1=O	–	–	10%	21 nM	95%	16 nM	609 nM	–	–	–	–	–	–	–
CC1OC2(CCN(CCc3ccccc3)CC2)CN(C)C1=O (stereo unspecified)	< 50%	> 10000 nM	16%	156 nM	79%	787 nM	142 nM	–	–	–	–	–	–	–
C[C@H]1OC2(CCN(CCc3ccccc3)CC2)CN(C2CC2)C1=O	–	4500 nM	51%	6 nM	91%	7 nM	–	–	–	–	–	–	–	–
CCN1CC2(CCN(CCc3cccc(F)c3F)CC2)O[C@H](C)C1=O	< 50%	> 10000 nM	8%	22 nM	90%	10 nM	556 nM	–	–	–	–	–	–	–
Cc1cc(OCCN2CCOCC2)nn1-c1ccc2ccccc2c1	< 50%	–	–	–	–	–	–	–	–	–	–	–	< 50%	< 50%
